In paper PMC11237012, “Synthesis and preliminary evaluation of novel PET probes for GSK-3 imaging” (Scientific Reports, 2024):

Experiment: In vivo PET imaging, uptake in brain and liver
Design: species or system wild-type FVB/NJ mice
Experimental: To evaluate the imaging potential and brain uptake of PET probe [^18F]2, we selected FVB/NJ wild-type mice and performed radiotracer uptake studies via tail vein injection of [^18F]2 followed by dynamic imaging upto 60 min and static imaging at 120 min post-injection. Ex-vivo biodistribution was performed immediately after 120 min static imaging. Uptake of [^18F]2 was assessed in the brain and liver of wild-type FVB/NJ mice by PET imaging at different time points post-injection with and without co-administration of 2 (reference compound as a self-blocking agent). Representative transverse sectional PET images of the brain at different time points are shown in Fig. 6 and representative coronal and sagittal sectional PET images of the liver and whole-body PET images are shown in SI-Figs. S17 and S18, respectively. It was encouraging to observe brain uptake of PET probe [^18F]2 with a standard uptake value (SUV) of 0.92 ± 0.28 (n = 6) at 5 min post-injection. Approximately 80% of PET probe [^18F]2 was cleared from the wild-type mice brain in the first 30 min. The uptake of [^18F]2 in the brain was lower than in the liver at all time points post-injection. […] The contrasting response in uptake of [^18F]2 in the brain in the presence of 2 could be attributed to the peripheral effect. […] This is also evident from the higher concentration of 2 in the blood of the animals in which [^18F]2 was co-administered with 2 as compared to administration of only [^18F]2 (Figs. 6, 7 and 8 and SI-Table S2, SI-Figs. S17, S18). A similar observation was also reported by Lindberg et al. 2021 with [^11C]verubulin in rats, where co-injection of verubulin increased the uptake of [^11C]verubulin in the brain and was attributed to the saturation of the enzymes (e.g. cytochrome P450 enzymes) that metabolize the tracer in the liver, leading to increased bioavailability. It is also plausible that the isonicotinamide class of compounds are substrate for cytochrome P450 enzymes.
Uptake of PET probe [^18F]2 (1.40 ± 0.61 MBq) was assessed with and without co-administration of 2 in 10–13-week-old wild-type FVB/NJ mice (The Jackson Laboratory, Bar Harbor, ME) after tail vein injection followed by PET imaging at 5 min, 10 min, 15 min, 20 min, 25 min, 30 min, 40 min, 50 min, 60 min and 120 min post injection. Additionally, ex vivo biodistribution was performed at 5 min, 10 min and 120 min post tail vein injection. To prepare [^18F]2 formulation for injection, 0.76 ± 0.48 µg (2.01 ± 1.27 nmol) of [^18F]2 was formulated in 10% ethanol/ 90% isotonic saline. For the blocking experiment, 20.21 ± 1.63 µg (53.75 ± 4.33 nmol) of 2 in DMSO was added to [^18F]2 (Am of 87.27 ± 77.26 (n = 13) GBq/µmole, having 0.46 ± 0.31 µg or 1.23 ± 0.83 nmol of nonradioactive 2 in it) in the final formulation volume of ~ 100 µL. This study had 12 wild type FVB/NJ male mice with body weight 31.8 ± 2.7 g and 10 wild type FVB/NJ female mice with body weight 27.0 ± 3.6 g at the time of imaging. All the animals were anesthetized for tail vein injection and PET imaging using an induction dose of 3% isoflurane and a maintenance dose of 2–3% isoflurane, which was administered via isoflurane vaporizer. All anesthetized animals were kept warm during imaging using a heat supported imaging chamber. For ex vivo biodistribution studies, animals were sacrificed at 5 min, 10 min and 120 min post-injection by cervical dislocation and tissues were harvested for gamma counting. For PET imaging studies, each animal underwent a 60 min dynamic PET scan (Framing Sequence: 1 × 10 s, 4 × 15 s, 8 × 30 s, 5 × 60 s, 4 × 300 s, 3 × 600 s) immediately post injection followed by 10 min static PET scan at 120 min post-injection on small animal micro-PET/X-ray system, Genesys 4 (Sofie BioSystems, Dulles, VA, USA). The PET images were reconstructed using Genesys 4 imaging software installed on the imaging system. […]

- Uptake (SUV) by PET image analysis (brain, 5 min post-injection, [^18F]2 + 20 µg of 2): 0.93 ± 0.06
- Uptake (SUV) by PET image analysis (brain, 5 min post-injection, [^18F]2 alone): 0.92 ± 0.28
- Change of brain uptake on co-administration of compound 2 (brain, 5 min time point): no difference in uptake
- Uptake (SUV) by PET image analysis (brain, 10 min post-injection, [^18F]2 + 20 µg of 2): 0.57 ± 1.06
- Uptake (SUV) by PET image analysis (brain, 10 min post-injection, [^18F]2 alone): 0.38 ± 0.06
- Change of brain uptake on co-administration of compound 2 (brain, 10 min time point): 1.5 fold
- Change of brain uptake on co-administration of compound 2 (brain, 15 min, 20 min, 25 min and 30 min time points): twofold
- Uptake (SUV) by PET image analysis (brain, 15 min post-injection, [^18F]2 + 20 µg of 2): 0.50 ± 0.06
- Uptake (SUV) by PET image analysis (brain, 15 min post-injection, [^18F]2 alone): 0.24 ± 0.03
- Uptake (SUV) by PET image analysis (brain, 20 min post-injection, [^18F]2 + 20 µg of 2): 0.43 ± 0.06
- Uptake (SUV) by PET image analysis (brain, 20 min post-injection, [^18F]2 alone): 0.21 ± 0.02
- Uptake (SUV) by PET image analysis (brain, 25 min post-injection, [^18F]2 + 20 µg of 2): 0.40 ± 0.06
- Uptake (SUV) by PET image analysis (brain, 25 min post-injection, [^18F]2 alone): 0.19 ± 0.03
- Uptake (SUV) by PET image analysis (brain, 30 min post-injection, [^18F]2 + 20 µg of 2): 0.36 ± 0.06
- Uptake (SUV) by PET image analysis (brain, 30 min post-injection, [^18F]2 alone): 0.19 ± 0.04
- Uptake (SUV) by PET image analysis (brain, 40 min post-injection, [^18F]2 + 20 µg of 2): 0.31 ± 0.06
- Uptake (SUV) by PET image analysis (brain, 40 min post-injection, [^18F]2 alone): 0.18 ± 0.04
- Uptake (SUV) by PET image analysis (brain, 50 min post-injection, [^18F]2 + 20 µg of 2): 0.28 ± 0.06
- Uptake (SUV) by PET image analysis (brain, 50 min post-injection, [^18F]2 alone): 0.17 ± 0.03
- Uptake (SUV) by PET image analysis (brain, 60 min post-injection, [^18F]2 + 20 µg of 2): 0.26 ± 0.06
- Uptake (SUV) by PET image analysis (brain, 60 min post-injection, [^18F]2 alone): 0.16 ± 0.03
- Uptake (SUV) by PET image analysis (brain, 120 min post-injection, [^18F]2 + 20 µg of 2): 0.18 ± 0.01
- Uptake (SUV) by PET image analysis (brain, 120 min post-injection, [^18F]2 alone): 0.09 ± 0.01
- Uptake (SUV) by PET image analysis (liver, 5 min post-injection, [^18F]2 + 20 µg of 2): 5.24 ± 1.46
- Uptake (SUV) by PET image analysis (liver, 5 min post-injection, [^18F]2 alone): 5.66 ± 1.18
- Uptake (SUV) by PET image analysis (liver, 10 min post-injection, [^18F]2 + 20 µg of 2): 5.86 ± 0.51
- Uptake (SUV) by PET image analysis (liver, 10 min post-injection, [^18F]2 alone): 7.43 ± 0.66
- Uptake (SUV) by PET image analysis (liver, 15 min post-injection, [^18F]2 + 20 µg of 2): 5.49 ± 0.28
- Uptake (SUV) by PET image analysis (liver, 15 min post-injection, [^18F]2 alone): 7.89 ± 0.59
- Uptake (SUV) by PET image analysis (liver, 20 min post-injection, [^18F]2 + 20 µg of 2): 5.19 ± 0.27
- Uptake (SUV) by PET image analysis (liver, 20 min post-injection, [^18F]2 alone): 7.88 ± 0.60
- Uptake (SUV) by PET image analysis (liver, 25 min post-injection, [^18F]2 + 20 µg of 2): 4.93 ± 0.30
- Uptake (SUV) by PET image analysis (liver, 25 min post-injection, [^18F]2 alone): 7.61 ± 0.65
- Uptake (SUV) by PET image analysis (liver, 30 min post-injection, [^18F]2 + 20 µg of 2): 4.76 ± 0.33
- Uptake (SUV) by PET image analysis (liver, 30 min post-injection, [^18F]2 alone): 7.34 ± 0.77
- Uptake (SUV) by PET image analysis (liver, 40 min post-injection, [^18F]2 + 20 µg of 2): 4.55 ± 0.23
- Uptake (SUV) by PET image analysis (liver, 40 min post-injection, [^18F]2 alone): 6.91 ± 0.91
- Uptake (SUV) by PET image analysis (liver, 50 min post-injection, [^18F]2 + 20 µg of 2): 4.31 ± 1.15
- Uptake (SUV) by PET image analysis (liver, 50 min post-injection, [^18F]2 alone): 6.40 ± 1.04
- Uptake (SUV) by PET image analysis (liver, 60 min post-injection, [^18F]2 + 20 µg of 2): 4.09 ± 1.16
- Uptake (SUV) by PET image analysis (liver, 60 min post-injection, [^18F]2 alone): 5.95 ± 1.12
- Uptake (SUV) by PET image analysis (liver, 120 min post-injection, [^18F]2 + 20 µg of 2): 3.19 ± 0.37
- Uptake (SUV) by PET image analysis (liver, 120 min post-injection, [^18F]2 alone): 2.78 ± 1.40
- Fraction of probe cleared from the brain (wild-type mice brain, in the first 30 min): Approximately 80%
Structure (SMILES): O=C(Nc1cnccc1-c1ccc([18F])cc1)c1ccnc(NC(=O)C2CC2)c1 [[^18F]2]
